For series [1], the system named is HBV e antigen (HBeAg). Briefly: Cryopreserved PHH assay, ELISA of hepatitis B e antigen in culture supernatant. The format is cell-based, type D HBV in human primary hepatocytes (PHH). The following applies: Hepatitis B virus, 240 h, read-out: HBeAg EC50. As for the experimental part:
(§1) The inhibitory effect of the compounds on HBV was evaluated by real-time quantitative qPCR assay (real time-qPCR) to detect the HBV DNA content in human primary hepatocytes (PHH) culture supernatant, and ELISA to detect the hepatitis B surface antigen and e antigen content, the EC50 value of the compounds was used as an indicator; meanwhile, the cell viability was detected by CellTiter-Glo to evaluate the toxicity of the compounds to cells.
(§2) 3.1. On day 0, PHH (1.32×10^5 cells/well) was seeded into a 48-well plate and incubated overnight at 37° C., 5% CO2.
(§3) 3.2. On the first day, PHH was infected with type D HBV (concentrated from HepDE19 cell culture supernatant).
(§4) 3.3 On the second day, the test compound was diluted to 7 concentrations with 5-fold serial dilution. Reference compound Peg-IFN-α 2a, 7 concentrations with 3-fold serial dilution. Compounds with different concentrations were added to the culture wells, and the wells were double-duplicated wells. The final concentration of DMSO in the culture medium was 2%.
(§5) 3.4 On the 4th, 6th, and 8th day, the culture medium was replaced by a fresh culture medium containing the compound.
(§6) 3.5 After collecting the culture supernatant from the culture well on the 10th day, the cell viability was tested with CellTiter-Glo. A portion of the culture supernatant was collected for ELISA determination to detect the content of hepatitis B virus surface antigen and e antigen; a portion of the sample was collected for extract DNA using a high-throughput DNA purification kit, referring to the product instructions for the specific steps.
(§7) 3.7 ELISA determination of hepatitis B virus surface antigen and e antigen
(§8) The specific steps can be referred to the product manual, the steps are briefly described as follows: 50 μL of sample and standard was added to the reaction plate respectively, 50 μL of enzyme conjugate was added to each well, the mixture was shaken and mixed well, then kept in a warm bath at 37° C. for 60 minutes, the plate was washed with washing solution for 5 times, 50 μL of the luminescent substrate was added to each well, the mixture was mixed well, and the reaction was carried out in the dark at room temperature for 10 minutes, and finally the chemiluminescence intensity was detected with the instrument.
(§9) Calculation of the inhibition percentage of HBV DNA, HBV surface antigen and e antigen. % Inh.=(1−value of the sample/value of DMSO control)×100.

Series [2] in a line: Cryopreserved PHH assay, cell viability by CellTiter-Glo. It is filed as cell-based. To be noted: human, cryopreserved primary human hepatocytes (PHH), day 10, CellTiter-Glo. The protocol: as §1, §2, §4, §5, §6
Calculation of the percentage of cell viability: % viability=the luminescence value of the sample/the luminescence value of the DMSO control×100.
For orientation: Cellular ATP, detected with luciferase, serves as a proxy for viable cell number.

Series [3] relates to HBV surface antigen (HBsAg). Kind of series: Cryopreserved PHH assay, ELISA of hepatitis B surface antigen in culture supernatant. The format is cell-based, type D HBV in human primary hepatocytes (PHH). The following applies: Hepatitis B virus, 240 h, read-out: HBsAg EC50. As for the experimental part:
as §1, §2, §3, §4, §5, §6, §7, §8, §9
Background: An ELISA detects its analyte on a solid surface through an enzyme-linked reagent.

The subject of series [4] is HBV DNA. Kind of series: Cryopreserved PHH assay, real-time qPCR of HBV DNA in culture supernatant. To be noted: Hepatitis B virus, 240 h; PHH infected with type D HBV, supernatant day 10, qPCR. It is filed as cell-based, type D HBV in human primary hepatocytes (PHH). As for the experimental part: as §1, §2, §3, §4, §5, §6
3.6 Quantitative PCR to detect the content of HBV DNA
The qPCR reaction mixture, sample and standard were added to the 384 well reaction plate. PCR reactions: 95° C., 10 min; 95° C., 15 sec, 60° C., 1 min, 40 cycles.
as §9

What is called EC50 is the concentration needed to bring the measured effect to its halfway point. Broadly, the CC50 is the concentration giving 50% cytotoxicity. Low readings indicate harm at low concentration, high ones better tolerance by the cells.

Some results are limits rather than exact numbers.

As for `CC1(C)N=C(c2nc(-c3ccc(C(=O)O)cc3F)cs2)Nc2ccccc21` [Compound I-38, 4-(2-(4,4-dimethyl-1,4-dihydroquinazolin-2-yl)thiazol-4-yl)-3-flurobenzoic acid], the EC50 in series [1] was found to be 12 nM; in series [3] it was 92 nM; in series [4] it was 16 nM. In series [2], the CC50 at 8 days was greater than 50000 nM.
On the same counts, the results for `CC1(C)N=C(c2nc(-c3ccc(C(=O)O)cc3)co2)Nc2c(Cl)cccc21` [Compound I-53, 4-(2-(8-chloro-4,4-dimethyl-1,4-dihydroquinazolin-2-yl)oxazol-4-yl)benzoic acid] are 5.6 nM, 115 nM, 8.4 nM and greater than 50000 nM.
On the same counts, the results for `O=C(O)c1ccc(-c2ccc(-c3cc(=O)c4cccc(Cl)c4o3)cc2)cc1` [Compound I-14, 4′-(8-chloro-4-oxo-4H-benzopyran-2-yl)-[1.1′-biphenyl)-4-carboxylic acid] are greater than 20000 nM, greater than 50000 nM, greater than 20000 nM and greater than 50000 nM.
The matching figures for `CC1(C)N=C(c2nc(-c3ccc(C(=O)O)cc3)c[nH]2)Nc2ccccc21` [Compound I-54, 4-(2-(4,4-dimethyl-1,4-dihydroquinazolin-2-yl)-1H-imidazol-4-yl)benzoic acid]: 41 nM, 326 nM, 25 nM and greater than 50000 nM.
On to `CC1(C)N=C(c2nc(-c3ccc(-c4nnn[nH]4)cc3)cs2)Nc2ccccc21` [Compound I-72], for which the EC50 in series [1] was found to be 8050 nM; in series [3], 17500 nM; in series [4], 8090 nM. In addition, the half-maximal cytotoxic concentration (CC50) at 8 days in series [2] was greater than 50000 nM.
The matching figures for `CC1N=C(c2ccc(-c3ccc(C(=O)O)cc3)cc2)Nc2c(Cl)cccc21` (centres unmarked) [Compound I-43, 4′-(8-chloro-4-methyl-1,4-dihydroquinazolin-2-yl)-[1.1′-biphenyl]-4-carboxylic acid]: 40800 nM, greater than 50000 nM, greater than 50000 nM and greater than 50000 nM.
The matching figures for `CC1(C)N=C(c2nc(-c3ccc(C(=O)O)cc3)cs2)Nc2c(Br)cccc21` [Compound I-22, 4-(2-(8-bromo-4,4-dimethyl-1,4-dihydroquinazolin-2-yl)thiazol-4-yl)benzoic acid]: 3.8 nM, greater than 50000 nM, 10 nM and greater than 50000 nM.
The matching figures for `O=C(O)c1ccc(-c2csc(C3=NC4(CC4)c4cccc(Cl)c4N3)n2)cc1` [Compound I-5, 4-(2-(8′-chloro-1′H-spiro[cyclopropyl-1,4′-quinazolin]-2′-yl)thiazol-4-yl)benzoic acid]: 9 nM, 105 nM, 11 nM and greater than 50000 nM.
As to `CC1(C)N=C(c2cc(-c3ccc(C(=O)O)cc3)c[nH]2)Nc2c(Cl)cccc21` [Compound I-51, 4-(5-(8-chloro-4,4-dimethyl-1,4-dihydroquinazolin-2-yl)-1H-pyrrol-3-yl)benzoic acid], the results for the EC50 in series [1], in series [3] and in series [4] were 10 nM, greater than 50000 nM and 9.7 nM, respectively. Moreover, the CC50 at 8 days in series [2] is greater than 50000 nM.
Consider `CC1(C)N=C(c2nc(-c3ccc(C(=O)O)cc3)cs2)Nc2c(C(F)(F)F)cccc21` [Compound I-23, 4-(2-(4,4-dimethyl-8-trifluoromethyl-1,4-dihydroquinazolin-2-yl)thiazol-4-yl)benzoic acid], for which the EC50 was 2 nM in series [1], greater than 50000 nM in series [3] and 8.3 nM in series [4]. In series [2], this compound displayed a CC50 at 8 days greater than 50000 nM.
In the case of `CC1(C)N=C(c2nc(-c3ccc(C(=O)O)cn3)cs2)Nc2ccccc21` [Compound I-34], the figures for the EC50 in series [1], in series [3] and in series [4] were 66.4 nM, 594 nM and 171 nM, respectively. The same compound yielded a CC50 at 8 days in series [2] greater than 50000 nM.
On the same counts, the results for `O=C(O)c1ccc(-c2csc(-c3cc(=O)c4cccc(Cl)c4o3)n2)cc1` [Compound I-19, 4-(2-(8-chloro-4-oxo-4H-benzopyran-2-yl)thiazol-4-yl)benzoic acid] are roughly 15000 nM, 39600 nM, 28400 nM and greater than 50000 nM.
With `CCOC(=O)c1ccc(-c2csc(C3=NC(C)(C)c4ccccc4N3)n2)cc1` [Compound I-73], the EC50 in series [1] is 12 nM; in series [3], 115 nM; in series [4], 13.4 nM. In addition, the CC50 at 8 days in series [2] was greater than 50000 nM.
The matching figures for `CC1(C)OC(c2nc(-c3ccc(C(=O)O)cc3)cs2)=Nc2ccccc21` [Compound I-67, 4-(2-(4,4-dimethyl-4H-benzo[d] [1,3]oxazin-2-yl)thiazol-4-yl)benzoic acid]: 4.2 nM, 147 nM, 17.9 nM and greater than 50000 nM.
On the same counts, the results for `O=C(O)c1ccc(-c2csc(C3=NCc4cccc(Cl)c4N3)n2)cc1` [Compound I-1, 4-(2-(8-chloro-1,4-dihydroquinazolin-2-yl)thiazol-4-yl)benzoic acid] are 18100 nM, 38100 nM, 22200 nM and greater than 50000 nM.
For `O=C(O)c1ccc(-c2csc(-c3cc(=O)c4cccc(Cl)c4[nH]3)n2)cc1` [Compound I-13, 4-(2-(8-chloro-4-oxo-1,4-dihydroquinolin-2-yl)thiazol-4-yl)benzoic acid], the EC50 is greater than 5000 nM in series [1], greater than 50000 nM in series [3] and greater than 5000 nM in series [4]. The compound further came in with a CC50 at 8 days in series [2] greater than 50000 nM.
Take `CC1(C)N=C(c2nc(-c3ccc(C(=O)O)cc3)cs2)Nc2c(F)cccc21` [Compound I-21, 4-(2-(8-fluoro-4,4-dimethyl-1,4-dihydroquinazolin-2-yl)thiazol-4-yl)benzoic acid]: the figures for the EC50 in series [1], in series [3] and in series [4] were 4.8 nM, 16.5 nM and 6.9 nM, respectively. In series [2], this compound displayed a CC50 at 8 days greater than 50000 nM.
On the same counts, the results for `CC1(C)N=C(c2nc(-c3ccc(C(=O)O)cc3)cs2)Oc2ccccc21` [Compound I-68, 4-(2-(4,4-dimethyl-4H-benzo[e] [1,3]oxazin-2-yl)thiazol-4-yl)benzoic acid] are 17 nM, 582 nM, 81.1 nM and greater than 50000 nM.
The matching figures for `CC1(C)N=C(c2cc(-c3ccc(C(=O)O)cc3)co2)Nc2c(Cl)cccc21` [Compound I-50, 4-(5-(8-chloro-4,4-dimethyl-1,4-dihydroquinazolin-2-yl)furan-3-yl)benzoic acid]: 53.7 nM, 102 nM, 77.5 nM and greater than 50000 nM.
As for `CC1(C)N=C(c2nc(-c3ccc(C(=O)O)cc3)cs2)Nc2c(Cl)cccc21` [Compound I-4, 4-(2-(8-chloro-4,4-dimethyl-1,4-dihydroquinazolin-2-yl)thiazol-4-yl)benzoic acid], the EC50 worked out at 3.2 nM in series [1], 10.2 nM in series [3] and 4.12 nM in series [4]. Besides, the CC50 at 8 days in series [2] is greater than 50000 nM.
